In paper PMC7822874, “Chemoprotective antimalarials identified through quantitative high-throughput screening of Plasmodium blood and liver stage parasites” (Scientific Reports, 2021):
Where “and” joins values, the source holds several entries; their conditions need not be identical. Equal values may be shown once. Read-outs that look alike come from different tables or passages of the source.

Assays:
[1] = system: P. falciparum Dd2 Cytb V259L; experiment: SYBR Green ABS proliferation assay, NCGC00473217 selected clone F06; type: cell-based, Plasmodium falciparum; conditions: Plasmodium falciparum, DD2, […]; averaged from three independent replicates; top concentration 29 µM; read-out: Average AC50 (Log[M]), NCGC00473217 clone F06 (Cytb V259L) (converted)
Protocol: (§1) As resistance selection studies implicated the parasite cytochrome bc1 complex in mediating reduced parasite susceptibility to both NCGC00473217 and NCGC00374598, we leveraged these drug-selected parasites to test for altered drug response to a panel of antimalarial compounds.
(§2) The P. falciparum parasite Dd2 line was cultured in vitro using standard conditions. […] Tissue culture flasks and assay plates were incubated at 37 °C under a gas mixture of 5% CO2, 5% O2 and 90% N2. […] Significant differences were assessed using two-sided Student’s t-tests. All HTS assays were stopped and read at 72 h. Percent response values represent relative growth as judged by SYBR Green-I fluorescence intensity values normalized to controls.
(§3) Fresh uninfected RBCs (0.5% hematocrit) were added on day 7 and media was changed every other day. […] Resistant parasites were maintained under drug media at a volume of 50 mL until a high parasitemia (> 5%) was achieved. Aliquots of the bulk resistant cultures were frozen in cryovials before cloning by limiting dilution in 96-well plates (seeded at 0.25 or 0.5 parasites/well)[70]. After 3 weeks of cloning, we screened for positive wells by flow cytometry with SYBR Green-stained cells. […] Parasites were harvested by saponin lysis at the trophozoite stage and genomic DNA was extracted using the QIAamp DNA Blood Midi Kit (Qiagen, Germantown, MD)[71].

[2] = system: P. falciparum Dd2 (clone B2) asexual blood stage parasites; experiment: P. falciparum Dd2 asexual blood stage SYBR Green-I 72 h proliferation assay (qHTS); type: cell-based, Plasmodium falciparum; conditions: Plasmodium falciparum, DD2, Dd2 parental; Hill fit, averaged from three independent replicates; top concentration 29 µM; read-out: Average AC50 (Log[M]), Dd2 (converted)
[3] = system: P. falciparum Dd2 Cytb A122D; experiment: SYBR Green ABS proliferation assay, NCGC00473217 selected clone F12; type: cell-based, Plasmodium falciparum; conditions: Plasmodium falciparum, DD2, […]; averaged from three independent replicates; top concentration 29 µM; read-out: Average AC50 (Log[M]), NCGC00473217 clone F12 (Cytb A122D) (converted)
Protocol: as §1, §2, §3

HepG2 = conditions: human, hepg2 cells, 48 h
[4] = system: Plasmodium falciparum Dd2 asexual blood stage parasites; experiment: microbe, parasite or virus in culture; set-up: species or system Plasmodium falciparum Dd2 in human erythrocytes; single determination (one 11-point concentration-response curve); conditions: Plasmodium falciparum, DD2, Erythrocyte, 72 h; read-out: AC50
[5] = system: luciferase-expressing P. berghei liver stage parasites in HepG2 cells; experiment: Inhibition of liver-stage development assay (ILSDA), Method 2 (WRAIR, 96-well); type: cell-based, Plasmodium berghei; conditions: for AC50: Plasmodium berghei, HepG2, Method 2
[6] = system: P. berghei-ANKA-GFP-LucCON liver stage parasites in HepG2-A16-CD81EGFP cells; experiment: P. berghei liver stage Pb-Luc assay, Method 1 (UCSD, 1536-well); type: cell-based, Plasmodium berghei; conditions: for Max Resp (signal direction of the dose response): Decrease = decreasing P. berghei viability with dose, Increase = increasing signal, Inactive = no dose response; for activity at 1 µM / activity at 3 µM: 48 h, average of 2 wells, 1536-well plate; for activity at 1 µM: nominal 1 uM (10 mM stock), […] for 15 mM, 1.2 uM for 12 mM, 2 uM for 20 mM stock; for activity at 3 µM: nominal 3 uM (10 mM stock), 4.5 uM for 15 mM, 3.6 uM for 12 mM, 6 uM for 20 mM stock
in vitro [7] = conditions: human, hepg2 cells
in vitro [8] = conditions: human, HepG2-A16-CD81EGFP cells, uninfected
HepG2-A16-CD81EGFP cells = conditions: average of 2 wells, repeat 2
[9] = system: P. falciparum Dd2 Cytb G131S; experiment: SYBR Green ABS proliferation assay, NCGC00374598 selected clone C11; type: cell-based, Plasmodium falciparum; conditions: Plasmodium falciparum, DD2, […]; averaged from three independent replicates; top concentration 29 µM; read-out: Average AC50 (Log[M]), NCGC00374598 clone C11 (Cytb G131S) (converted)
Protocol: as §1, §2, §3

[10] = system: T1, Plasmodium falciparum Dd2-attB (parental line), asexual blood stages; experiment: microbe, parasite or virus in culture; set-up: replicate k of 3 (each line is one of three independent assays; the three lines of one compound and parasite line follow each other); conditions: n = 1
T1 construct: Dd2-attB, the isogenic parental line
Summary of the method: (§4)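 Both lines were tested side by side with selected compounds, repeated in three independent assays. Differences between parental and ScDHODH-expressing parasites were then assessed with a two-sided Student's t-test.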

[11] = system: T2, Plasmodium falciparum Dd2-attB-ScDHODH (transgenic line expressing yeast DHODH), asexual blood stages; experiment: organism not typed; set-up: replicate k of 3 (each line is one of three independent assays; the three lines of one compound and parasite line follow each other); conditions: 72 h, n = 1
T2 construct: Dd2-attB-ScDHODH, the transgenic line that expresses yeast DHODH
Summary of the method: as §4

[12] = Method 1, log10 of molar AC50 from Hill fit
[13] = Plasmodium berghei, Method 1, log10 of molar AC50 from Hill fit, read-out: Log AC50 (converted)

`CCCN1C(CC(C)C)=N[S+](=O)([O-])c2cc(NC(=O)C3CCCO3)ccc21` (centres unmarked) [NCGC00521155-01] showed an AC50 [1] of 5.97e-06 M, an AC50 [2] of 1.26e-05 M and an AC50 [3] of 8.93e-06 M.

In the case of `COc1ccc(CCN2CCC(Nc3nc4ccccc4n3Cc3ccc(F)cc3)CC2)cc1` [NCGC00016913-08], the “Log AC50 (M)” value (HepG2) was -4.4643 M, the AC50 [4] was 2370 nM and the “Max Resp (signal direction of the dose response)” value (from here on “Max Resp”) [5] was “Inactive”. The AC50 [6] was 3160 nM, the “Max Resp” value ([6]; Method 1) was “Decrease” and the “Log AC50 (M)” value [6, 12] was -5.500 M. The AC50 [6, 13] was 2820 nM and the CC50 at 48 h (in vitro [7]) was 34.3 µM.

With `c1ccc(Nc2nc(NCc3ccco3)c3ccccc3n2)cc1` [MLS000767881-01] the “Log AC50 (M)” value (HepG2) was -4.3643 M, the AC50 [4] was 1680 nM and the “Max Resp” value ([5]; Method 2, Decrease = decreasing P. berghei viability with dose, Increase = increasing signal, Inactive = no dose response) was “Decrease”. For the same compound, the AC50 ([5]; Hill fit, 50% of maximum activity response, read-out: AC50) was 2240 nM, the AC50 ([5]; log10 of molar AC50 from Hill fit, read-out: Log AC50 (converted)) was 2240 nM and the CC50 at 48 h (in vitro [7]) was 43.2 µM. The viability at 48 h, 1 µM (in vitro [8]) was 94% and the viability at 48 h, 3 µM (in vitro [8]) was 80%.

For `COc1ccccc1Nc1cnc2ccc(-c3ccc(OC)c(OC)c3)nn12` [NCGC00412573-01], the “Log AC50 (M)” value (HepG2) was -4.3528 M, the AC50 [4] was 1530 nM and the “Activity direction (Decrease / Inactive)” value ([5]; P. berghei liver stage, Method 2, dose response) was “Inactive”. For the same compound, the “HepG2 viability signal, 1 uM, repeat 2” value (HepG2-A16-CD81EGFP cells; nominal 1 uM (10 mM stock), […] for 15 mM, 1.2 uM for 12 mM, 2 uM for 20 mM stock) was 106.68%, the “HepG2 viability signal, 3 uM, repeat 2” value (HepG2-A16-CD81EGFP cells; nominal 3 uM (10 mM stock), 4.5 uM for 15 mM, 3.6 uM for 12 mM, 6 uM for 20 mM stock) was 92.36% and the “Max Resp” value ([6]; Method 1) was “Decrease”. For the same compound, the AC50 ([6]; Method 1, Hill fit, 50% of maximum activity response, read-out: AC50) was 447 nM, the “Log AC50 (M)” value [6, 12] was -6.350 M and the activity at 1 µM ([6]; Plasmodium berghei, repeat 1, read-out: Pb-Luc signal, 1 uM, repeat 1) was 7.11%. It also gave an activity at 1 µM ([6]; Plasmodium berghei, repeat 2, read-out: Pb-Luc signal, 1 uM, repeat 2) of 51.2%, an activity at 1 µM ([6]; Plasmodium berghei, repeat 3, read-out: Pb-Luc signal, 1 uM, repeat 3) of 2.63% and an activity at 3 µM ([6]; Plasmodium berghei, repeat 1, read-out: Pb-Luc signal, 3 uM, repeat 1) of 1.18%. For the same compound, the activity at 3 µM ([6]; Plasmodium berghei, repeat 2, read-out: Pb-Luc signal, 3 uM, repeat 2) was 32.2%, the activity at 3 µM ([6]; Plasmodium berghei, repeat 3, read-out: Pb-Luc signal, 3 uM, repeat 3) was 43.3% and the AC50 ([6]; Plasmodium berghei, Method 1, Hill fit, 50% of maximum activity response, read-out: AC50) was 355 nM. For the same compound, the AC50 [6, 13] was 355 nM, the CC50 at 48 h (in vitro [7]) was 44.4 µM and the viability at 48 h, 1 µM (in vitro [8]) was 108%. It also gave a viability at 48 h, 3 µM (in vitro [8]) of 73.1%.

For `CN1C(CSCC(F)(F)F)Nc2cc(Cl)c(S(N)(=O)=O)cc2S1(=O)=O` (centres unmarked) [NCGC00182076-03], the AC50 [2] was 2.82e-06 M, the AC50 [9] was 3.56e-06 M and the AC50 [3] was 1e-08 M.

In the case of `Oc1cc(NCc2ccccc2)cc2cccnc12` [NCGC00183793-01], the “Log AC50 (M)” value (HepG2) was -4.3643 M, the AC50 [4] was 2990 nM and the “Individual replicates / Log AC50 (M)” value ([10]; 72 h) was -5.3986 Log AC50 (M) and -5.2986 Log AC50 (M). The AC50 ([10]; Plasmodium falciparum, DD2, 72 h, read-out: Individual replicates / Log AC50 (M) (converted)) was 3.56e-06 M, the CC50 at 48 h (in vitro [7]) was 43.2 µM and the viability at 48 h, 1 µM (in vitro [8]) was 91%. The viability at 48 h, 3 µM (in vitro [8]) was 52%, the “Individual replicates / Log AC50 (M)” value [11] was -5.2486 Log AC50 (M) and the AC50 ([11]; read-out: Individual replicates / Log AC50 (converted)) was 4.48 µM.
